The values that follow come from ChEMBL document CHEMBL3596162, “Biaryls as potent, tunable dual neurokinin 1 receptor antagonists and serotonin transporter inhibitors” (Bioorg Med Chem Lett, 2015).

As a reminder, the inhibition in vivo is how much of the control response was suppressed. Low readings indicate a weak effect, high ones a strong effect. As usually defined, the IC50 is the concentration at which inhibition is half-maximal. Read a high IC50 as weaker potency in that assay.

Series [1] deals with Gerbillinae. The experiment in a line: Inhibition of foot tapping in gerbil foot tap model at 10 mg/kg, po and treated with 3 pmol, icv GR-73632 and measured for 5 mins after animal regains righting reflex. It counts as functional.
Series [2] can be described thus: Drug concentration in brain of gerbil foot tap model at 10 mg/kg, po. It counts as ADME, organism-based. As to conditions: gerbillinae, in vivo, read-out: Drug uptake.
A short description of series [3]: Displacement of [3H]-citalopram from gerbil SERT expressed in HEK293 cell membranes incubated for 60 mins by liquid scintillation counting method. Set-up: species or system Gerbillinae. A general note: Loss of bound radioactivity is the signal in a displacement assay; it reports binding, not function.
The test system of a further series is HEK293. The experiment in a line: Selectivity index, ratio of IC50 for gerbil SERT expressed in HEK293 cell membranes to IC50 for gerbil NK1 receptor expressed in HEK293 cell membranes. As to conditions: Gerbillinae. It counts as cell-based.
Series [4] deals with Substance-P receptor (Meriones unguiculatus, UniProt Q5DUB1). As to the kind of experiment: Displacement of [125I]-substance P from gerbil NK1 receptor expressed in HEK293 cell membranes incubated for 30 mins by liquid scintillation counting method. More on the design: species or system Gerbillinae.
Chain of Substance-P receptor (Meriones unguiculatus, UniProt Q5DUB1) (Q5DUB1 whole entry): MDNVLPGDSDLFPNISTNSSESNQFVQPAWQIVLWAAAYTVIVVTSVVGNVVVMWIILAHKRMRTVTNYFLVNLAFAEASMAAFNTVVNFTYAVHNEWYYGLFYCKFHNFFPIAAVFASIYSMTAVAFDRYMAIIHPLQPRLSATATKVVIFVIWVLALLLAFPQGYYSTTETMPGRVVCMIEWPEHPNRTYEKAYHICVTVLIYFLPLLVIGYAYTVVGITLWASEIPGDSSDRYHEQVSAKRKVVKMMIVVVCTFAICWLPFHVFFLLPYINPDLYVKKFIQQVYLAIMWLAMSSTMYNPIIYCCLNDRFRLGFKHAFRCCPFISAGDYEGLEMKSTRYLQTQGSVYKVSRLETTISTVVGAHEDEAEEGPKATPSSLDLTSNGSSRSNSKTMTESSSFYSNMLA
Series [5] addresses Substance-P receptor (Homo sapiens, UniProt P25103). As to the kind of experiment: Binding affinity to human NK1 receptor.
The nature of series [6]: Plasma concentration in gerbil foot tap model at 10 mg/kg, po. It counts as ADME, organism-based. As to conditions: gerbillinae, in vivo.
Series [7] in a line: Ratio of drug concentration in brain to plasma of gerbil foot tap model at 10 mg/kg, po. It counts as ADME, organism-based. The settings on record: gerbillinae, read-out: BPR.
Series [8] deals with Gerbillinae. The experiment in a line: In-vivo receptor occupancy at SERT in gerbil at 3 mg/kg, po measured after 4 hrs. It counts as functional.
Series [9] deals with Gerbillinae. The experiment in a line: In-vivo receptor occupancy at SERT in gerbil at 3 to 30 mg/kg, po measured after 4 hrs. It counts as functional, organism-based.
Series [10] concerns Gerbillinae. As to the kind of experiment: In-vivo receptor occupancy at NK1 receptor in gerbil at 3 to 30 mg/kg, po measured after 4 hrs. Type of series: functional.
Series [11] relates to Gerbillinae. The experiment in a line: In-vivo receptor occupancy at SERT in gerbil at 30 mg/kg, po measured after 4 hrs. It counts as functional.

Chain of Substance-P receptor (Homo sapiens, UniProt P25103) (P25103 whole entry): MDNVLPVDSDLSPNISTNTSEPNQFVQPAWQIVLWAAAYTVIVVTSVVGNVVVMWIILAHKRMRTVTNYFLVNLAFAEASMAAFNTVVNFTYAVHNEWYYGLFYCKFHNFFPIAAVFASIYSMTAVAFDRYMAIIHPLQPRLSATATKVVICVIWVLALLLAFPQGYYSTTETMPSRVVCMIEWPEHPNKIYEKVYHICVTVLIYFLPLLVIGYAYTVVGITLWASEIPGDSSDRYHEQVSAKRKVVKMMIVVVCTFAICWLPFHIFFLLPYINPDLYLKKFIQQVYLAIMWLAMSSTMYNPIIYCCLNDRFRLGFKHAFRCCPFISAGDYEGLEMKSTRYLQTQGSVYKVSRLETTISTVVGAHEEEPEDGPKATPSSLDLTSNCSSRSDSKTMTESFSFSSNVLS

With `N#Cc1ccc(-c2cc(COCC3(c4ccccc4)CCNCC3)cc(C(F)(F)F)c2)cc1`, the inhibition in vivo at 10 mg/kg in the series with Gerbillinae [1] stood at 29%. Further, the values for the concentration in series [2] and in [6] were 190 nM and 365 nM, respectively. The IC50 in [3] came to 4 nM; at Substance-P receptor [4], 0.45 nM; at Substance-P receptor [5], 0.59 nM. In the series on HEK293, the Ratio IC50 came to 9. Besides, the Kp in [7] stood at 0.52.

For the molecule `CN1CCC(COCc2cc(-c3ccc(C#N)cc3)cc(C(F)(F)F)c2)(c2ccccc2)CC1`, the inhibition in vivo at 10 mg/kg in the series with Gerbillinae [1] came to 73%. Moreover, the Occ was 11% in the series on Gerbillinae [8], “Dose-dependent effect” with Gerbillinae [9], 88% with Gerbillinae [10] and 84% in the series on Gerbillinae [11]. The concentration turned out to be 1300 nM in [2] and 526 nM in [6]. Also, the IC50 was determined as 9.5 nM in series [3], 0.29 nM on Substance-P receptor [4] and 0.2 nM on Substance-P receptor [5]. In addition, in the series on HEK293, the Ratio IC50 is 33. Also, the Kp in [7] worked out at 2.5.
